The source of these data is patent US10058099B2, “Antimicrobial materials and methods” (University of Florida Research Foundation, Inc., priority 2011, dated 2018).

For one data set, the system named is E. coli biofilms. As to the kind of experiment: Minimum biofilm eradication concentration (MBEC) with the Calgary Biofilm Device. In kind it is cell-based, Escherichia coli K-12. The following applies: for MBEC (light) / MBEC (dark): E. coli biofilm; for MBEC (light): 1 h near-UV light (300-400 nm); for MBEC (dark): 24 h incubation in the dark. The protocol: (§1) Escherichia coli K-12 was obtained from the American Type Culture Collection (ATCC #10798), revived in Luria Broth (LB, Sigma) and stored in LB with 20% (v/v) glycerol at −70° C. Stock cultures maintained on agar (2% Difco) plates of LB were used to inoculate 50 mL cultures in liquid LB. E. coli was grown at 37° C. for 18 h. Bacteria were grown as a microbial biofilm using a Calgary Biofilm Device (CBD), commercially available as the MBEC™ assay, featuring 96 pegs protruding down from a microtiter plate lid and fitting into the wells of a standard 96-well microtiter plate. This device allows 96 identical biofilms to grow on the pegs at a time. Biofilms of E. coli were grown in each well using 150 μL of the culture diluted to 1×10^7 CFU (colony forming unit) following previous calibration. The biofilms were grown at 37° C. for 24 h in a shaker at 150 rpm.
The Minimum biofilm eradication concentration (MBEC) is the lowest concentration at which bacteria from a biofilm fail to regrow. The MBEC was also measured using the CBD and detailed procedure has been described elsewhere.^17, 18, 20 Biofilms were formed and washed as described above. The biofilms were then transferred to a plate containing saline with a gradient concentration of the OPEs (challenge plate). The samples exposed to light were incubated for 1 h in a LuzChem ORG photoreactor using Hitachi FL8BL-B (λ=300-400 nm) lamps, whereas the samples kept in the dark, were incubated for 24 h in a shaker at 150 rpm. The biofilms were then removed from the challenge plate and washed twice in a plate of saline solution to remove traces of OPEs. The biofilms were placed in a plate containing LB media (recovery plate) and sonicated for 10 min in an ultrasonic cleaner (VWR 97043-964) in order to recover the biofilm in the media solution through vibration. The recovery plate containing the biofilms was incubated in the dark at 37° C. for 24 h. To determine the MBEC, the growth of bacteria was evaluated in the recovery plate after incubation. […] Bacterial grown in a specific well indicates regrowth of planktonic bacteria from surviving biofilm, while clear wells indicate the eradication of the biofilms and the lack of bacteria regrowth.

Data set [1] in a line: Singlet oxygen quantum yield, emission at 1270 nm. The class given is physicochemical. The following applies: CD3OD, 2'-acetonaphthone (ΦΔ = 0.79) as actinometer. From the text: We carried out transient absorption experiments in methanol and water solutions. […] The lifetime of the transient absorption is in the microsecond range and in each case it is efficiently quenched by O2 indicating the absorption is due to the triplet excited state. By examination of the initial amplitudes of the transient absorption (ΔA, t=0, Table 1), we were able to qualitatively determine the relative triplet yield of these oligomers. […] To substantiate our hypothesis, we carried out studies to observe singlet oxygen emission in deuterated methanol (as the life time of the singlet oxygen is very short in […]).^21 As anticipated, each of the oligomers is capable of sensitizing the formation of singlet oxygen as observed by its characteristic emission at 1270 nm. Of the oligomers studied, (C) and (E) show a higher quantum yield for singlet oxygen generation (ΦΔ) which corroborates well with the photophysical studies described above.
Absorption and fluorescence spectra were recorded on a Cary 100 UV-Vis spectrophotometer and a Photon Technology International spectrofluorometer, respectively. The optical density of the solutions was adjusted to ˜0.7 at the excitation wavelength (355 nm) with the laser energy set at ˜7 mJ. Solutions were purged with argon for 45 min before making transient absorption spectroscopy measurements. Singlet oxygen quantum yields were measured using a Photon Technology International Quantamaster near-IR spectrophotometer equipped with an InGaAs photodiode detector, optical chopper and a lock in amplifier. See Table 1 and FIGS. 1-2 for results.

In another data set the test system is E. coli K12 biofilms. As to the kind of experiment: Minimum inhibitory concentration (MIC) with the Calgary Biofilm Device (MBEC assay). The class given is cell-based, Escherichia coli K-12. The following applies: 24 h, dark, 37 °C, 90% inhibition of growth, OD 600 nm. The protocol:
To screen the effectiveness of EO-OPEs shown above at killing bacteria residing in a biofilm, a Calgary Biofilm Device (CBD), commercially available as the MBEC™ assay was used to grow 96 equivalent biofilms at a time, and to determine the minimum inhibitory concentration (MIC). After incubating the CBD devise in Escherichia coli (E. coli K12) suspension in LB media for 24 hours, biofilms were uniformly formed on the CBD surface. The E. coli biofilms were then incubated with EO-OPEs for 24 hours to obtain their MIC values.
as §1
The minimum inhibitory concentration (MIC) represents the lowest concentration of antimicrobial required to inhibit the visible growth of a planktonic bacterial population. The MIC was determined using the CBD.^17, 18, 20 Biofilms were formed on the peg surface of the CBD as described above and then transferred to a 96-well microtiter plate containing 200 μL of saline (0.85% NaCl aqueous solution) and washed for 5 min to remove non-adherent bacteria. The biofilms were transferred to a plate containing 200 μL of LB with a gradient concentration of the OPEs (challenge plate). Each concentration was repeated eight times (one row of the plate). The biofilms were then incubated in the dark at 37° C. for 24 h. To determine the MIC, the growth of bacteria was evaluated in the challenge plate after incubation. The optical density of each well was measured at 600 nm and the MIC was calculated for 90% inhibition of growth compared with biofilms grown in LB only.

The subject of the next data set is S. aureus. As to the kind of experiment: Viability of S. aureus cells after UV exposure or dark incubation with oligomer solution. The following applies: for killing / deactivation of S. aureus: 10 min UV irradiation, 1 μg/mL printed for EO-OPE-DABCO. In kind it is cell-based. The protocol:
FIG. 24 is a graph showing the viability of S. aureus cells with 1 μg/mL and 10 μg/mL of OPE-DABCO and EO-OPE-DABCO solution following exposure to UV light and incubation in dark.
[drawing 28] containing quaternary ammonium pendant groups based on 1,4-diazabicyclo-[2.2.2.]-octane (DABCO). It has been shown that the incorporation of the DABCO group into antimicrobials might amplify its ability to diffuse into the bacterial cell wall due to similarities between this moiety and the lipid layer. [Ref: Kenawy, E. R., S. D. Worley, and R. Broughton, The chemistry and applications of antimicrobial polymers: A state-of-the-art review. Biomacromolecules, 2007. 8(5): p. 1359-1384] Therefore, the binding of antimicrobials to the cytoplasmic membrane of the bacteria is increased by both ionic and van der Waals interactions. [Ref: Kenawy, E. R., S. D. Worley, and R. Broughton, The chemistry and applications of antimicrobial polymers: A state-of-the-art review. Biomacromolecules, 2007. 8(5): p. 1359-1384] These two oligomers have been employed to compare their antimicrobial activity both in the dark and under the UV light in regard to their structure difference.

Setting [2] is: Escherichia coli, K12BIOFILMS, read-out: MIC.

Values after ≈ are worked out from the molar mass of the structure shown. Like-named read-outs stand apart in the source and are kept apart here. Where only a bound is given, the exact number is not on record here.

In the case of `CCCCCC[N+]12CC[N+](CCCOc3ccc(C#Cc4ccc(C#Cc5ccc(OCCC[N+]67CC[N+](CCCCCC)(CC6)CC7)cc5)cc4)cc3)(CC1)CC2` [oligomer (B)], in the data set with E. coli biofilms, the “MBEC (light)” value was 60 µg/mL and the “MBEC (dark)” value is 200 µg/mL. Moreover, the “ΦΔ (quantum yield for singlet oxygen generation)” value in data set [1] is 0.20 ± 0.02. Moreover, the MIC in the data set with E. coli K12 biofilms (setting [2]) came to 14 µg/mL. In the data set with E. coli K12 biofilms, the MIC came out at 14.0 µg/mL. Besides, in the data set with S. aureus, the “killing / deactivation of S. aureus” value was 100%. Besides, in the data set with S. aureus (S. aureus, 10 min incubation in the dark), the bacteria surviving is on record as < 10%.
For `NC[C@H]1O[C@H](O[C@H]2[C@H](O)[C@@H](O[C@H]3O[C@H](CO)[C@@H](O)[C@H](N)[C@H]3O)[C@H](N)C[C@@H]2N)[C@H](O)[C@@H](O)[C@@H]1O` [kanamycin, reference compound], the “MBEC (dark)” value with E. coli biofilms is >1000 µg/mL. Moreover, the MIC in the data set with E. coli K12 biofilms (setting [2]) was 11.2 µg/mL (≈ 23.1 µM).
`CCCCCC[N+]12CC[N+](CCCOc3ccc(C#Cc4ccc(C#Cc5ccc(OCCC[N+]67CC[N+](CCCCCC)(CC6)CC7)cc5)s4)cc3)(CC1)CC2` [oligomer (C)]: in the data set with E. coli biofilms, the “MBEC (light)” value came to 60 µg/mL and the “MBEC (dark)” value came to 150 µg/mL. Moreover, in data set [1], the “ΦΔ (quantum yield for singlet oxygen generation)” value turned out to be 0.46 ± 0.02. The MIC in the data set with E. coli K12 biofilms (setting [2]) was determined as 15.8 µg/mL.
As for `CCCCCC[N+]12CC[N+](CCCOc3cc(C#Cc4ccc(C(=O)OCC)cc4)c(OCCC[N+]45CC[N+](CCCCCC)(CC4)CC5)cc3C#Cc3ccc(C(=O)OCC)cc3)(CC1)CC2` [oligomer (A)], the “killing of E. coli biofilm under near-UV light exposure” value with E. coli biofilms (1 h near-UV, in the concentration range tested) was “did not show any killing”. In addition, the “dark killing of E. coli biofilm” value with E. coli biofilms (24 h dark, concentration range <1000 μg/mL) is recorded as “did not exhibit any dark killing”. In the data set on E. coli biofilms, the “MBEC (light)” value is >500 µg/mL and the “MBEC (dark)” value is >1000 µg/mL. For the same compound, the “ΦΔ (quantum yield for singlet oxygen generation)” value in data set [1] is 0.34 ± 0.03. Further, the MIC in the data set on E. coli K12 biofilms (setting [2]) turned out to be 52 µg/mL. For the same compound, the MIC with E. coli K12 biofilms was 51.7 µg/mL. Further, the “killing / deactivation of S. aureus” value in the data set with S. aureus is ~75%. In the data set on S. aureus (UV, irradiation longer than 10 min (FIG. 24)), the “deactivation of S. aureus with increasing irradiation time” value is recorded as ~99%.
